According to ChEMBL document CHEMBL3507680, “University of Dundee, Gates Library screen for HepG2 cell viability”:

Assay: Human HepG2 cell viability assay in 384 well format
Assay type: toxicity, cell-based
Design: dose 125 nL, time 70.5 hour; concentration not given beside the values
Conditions: HepG2 cells, read-out: Inhibition

## Cc1nc(CN2CCN(C(=O)c3scnc3C)CC2)cs1
  cytotoxicity at 70.5 h: -3.33%

## COCCCN(CCOC)C(=O)Nc1ccccc1-n1cccn1
  cytotoxicity at 70.5 h: 2.41%

## Cc1cnc(CNC2CCc3nc(C(C)C)nn3C2)cn1 (stereo not given)
  cytotoxicity at 70.5 h: -2.01%

## Cc1cccc(NC(=O)CN(C)C(=O)c2scnc2C)n1
  cytotoxicity at 70.5 h: 0.715%

## CC(C)c1ccc(C(=O)N2CCOCC2CC(=O)c2ccco2)cn1 (stereo not given)
  cytotoxicity at 70.5 h: -5.67%

## O=C(C1CCCC1)N1CCC2(CC1)OCCO2
  cytotoxicity at 70.5 h: -1.7%

## CCN(CC)C(=O)CN(C)C(=O)c1ccc(-c2ccsc2)nc1C
  cytotoxicity at 70.5 h: 33.4%

## O=C(CN1CCCCC1Cn1cncn1)Nc1ccncc1 (stereo not given)
  cytotoxicity at 70.5 h: 3.49%

## CN(Cc1cnn(C)c1)C(=O)NC1CCCC1
  cytotoxicity at 70.5 h: -7.1%

## CCOc1ncccc1NC(=O)c1cc(C)sc1C
  cytotoxicity at 70.5 h: -11%

## CC(C)CC(=O)N1CCCC1c1ccsc1 (stereo not given)
  cytotoxicity at 70.5 h: -10.6%

## O=C(CCC(=O)N1CCCC1c1ccsc1)N1CCOCC1 (stereo not given)
  cytotoxicity at 70.5 h: -5.51%

## O=C(O)c1nnn(-c2cccc(C(F)(F)F)c2)c1C1CC1
  cytotoxicity at 70.5 h: -3.12%

## Cc1nc(CCNC(=O)Nc2cc(C(F)(F)F)c[nH]c2=O)cs1
  cytotoxicity at 70.5 h: -6.32%

## CC(C)NC(=O)c1nnn(-c2cccc(F)c2)c1C1CC1
  cytotoxicity at 70.5 h: -6.18%

## CC(C)CN1CCC(NC(=O)c2ccc(F)cc2Cl)CC1
  cytotoxicity at 70.5 h: -2.96%

## NC(=O)COc1ccc(CNCc2ccc(Cl)c(F)c2)cc1
  cytotoxicity at 70.5 h: -0.573%

## Cc1nccc(CNC(=O)Nc2cc(C(F)(F)F)c[nH]c2=O)n1
  cytotoxicity at 70.5 h: -5.34%

## Cc1cccc(NCC(=O)Nc2cc(F)ccc2F)c1C(N)=O
  cytotoxicity at 70.5 h: -8.06%

## Cc1cc(C)n(CC2CN(CC(=O)Nc3cccnc3)CCO2)n1 (stereo not given)
  cytotoxicity at 70.5 h: -4.57%

## O=C(CN1CCOC(Cn2cccn2)C1)Nc1cccnc1 (stereo not given)
  cytotoxicity at 70.5 h: 31.9%

## CCN(CC1CCOC1)C(=O)c1ccc(-c2ccsc2)nc1C (stereo not given)
  cytotoxicity at 70.5 h: -7.65%

## CCN(CC(=O)NC(C)C)C(=O)c1ccc(-c2ccsc2)nc1C
  cytotoxicity at 70.5 h: -3.6%

## O=C(CN1CCCC1Cn1cncn1)Nc1ccnn1C1CCCC1 (stereo not given)
  cytotoxicity at 70.5 h: -4.96%

## Fc1cccc(C2CCCN2Cc2nnnn2C2CC2)c1 (stereo not given)
  cytotoxicity at 70.5 h: -8.46%

## Cc1cc(C)n(Cc2cccc(C(=O)NCCSCC(C)(C)O)c2)n1
  cytotoxicity at 70.5 h: -3.16%

## Cc1nc(C)n(CC2CN(CC(=O)Nc3ccncc3)CCO2)n1 (stereo not given)
  cytotoxicity at 70.5 h: -5.56%

## CCc1nc(CN(C)C2CCN(Cc3nc(C4CC4)no3)C2)no1 (stereo not given)
  cytotoxicity at 70.5 h: 31.8%

## CCc1cnc(CN(C)C2CCN(CCCS(=O)(=O)NC)C2)o1 (stereo not given)
  cytotoxicity at 70.5 h: 2.84%

## Cc1nn(C)c(N2CCOCC2)c1CNC(c1ccccc1)C1CC1 (stereo not given)
  cytotoxicity at 70.5 h: 11.3%

## CC(CN1CCOCC1)NC(=O)c1cc(Cl)c2c(c1)OCCO2 (stereo not given)
  cytotoxicity at 70.5 h: 0.172%

## Cc1ccc(NC(=O)N(CCO)Cc2ccsc2)cc1
  cytotoxicity at 70.5 h: -0.584%

## COc1ccc(C2CCCCCN2S(N)(=O)=O)cc1 (stereo not given)
  cytotoxicity at 70.5 h: 23.5%

## CCS(=O)(=O)N1CCC(Oc2ccc(C#N)cc2)CC1
  cytotoxicity at 70.5 h: 24.1%

## COc1ccc(NC(=O)N(CCO)Cc2ccsc2)c(OC)c1
  cytotoxicity at 70.5 h: 0.461%

## CC(C)(C(=O)NCC(=O)NCc1ccccc1)c1ccccc1F
  cytotoxicity at 70.5 h: 3.35%

## CCCS(=O)(=O)N1CCC(Oc2ccc(C#N)cc2)CC1
  cytotoxicity at 70.5 h: 4.2%

## CC(C)c1nnc2n1CC(CNCc1nc3ccccc3o1)CC2 (stereo not given)
  cytotoxicity at 70.5 h: 2.4%

## CC(C)(C)c1n[nH]c(C2CN(C(=O)CCCn3cccn3)CCO2)n1 (stereo not given)
  cytotoxicity at 70.5 h: 0.387%

## Cc1noc(C)c1CN1CCC(N(C)Cc2noc(C(C)C)n2)C1 (stereo not given)
  cytotoxicity at 70.5 h: 5.99%

## Cc1ncccc1CNCC1CCc2nnc(C(C)C)n2C1 (stereo not given)
  cytotoxicity at 70.5 h: -7.03%

## O=C(NCCNc1ccccn1)NCC1CCS(=O)(=O)C1 (stereo not given)
  cytotoxicity at 70.5 h: 4.42%

## Cc1nnc(CN(Cc2cccc(Br)c2)C2CC2)o1
  cytotoxicity at 70.5 h: -8.25%

## O=S1(=O)CCC(c2nc(-c3cccc(Br)c3)no2)C1 (stereo not given)
  cytotoxicity at 70.5 h: -8.75%

## Cc1cnn(C2CN(Cc3nnc(-c4ccccc4Cl)o3)C2)c1
  cytotoxicity at 70.5 h: 5.37%

## Cc1cc(CS(=O)(=O)N(C)C(C)c2ccc(Cl)cc2)on1 (stereo not given)
  cytotoxicity at 70.5 h: -11.1%

## COC(=O)NCCC(=O)NC(c1ccc(Cl)cc1)C(F)(F)F (stereo not given)
  cytotoxicity at 70.5 h: -8.05%

## Cc1cc(CNC(=O)CCN2CCN(c3ccccn3)CC2)c(C)o1
  cytotoxicity at 70.5 h: 9.41%

## COCCN(c1ccncc1)S(=O)(=O)c1cc(C)cc(F)c1
  cytotoxicity at 70.5 h: -10.7%

## N#CCc1ccc(OCC(=O)NS(=O)(=O)c2ccc(Br)s2)cc1
  cytotoxicity at 70.5 h: 4.36%

## O=C(NCCNc1cnccn1)NCC1CCS(=O)(=O)C1 (stereo not given)
  cytotoxicity at 70.5 h: -7.83%

## Cc1ncsc1CNC(=O)CCN1CCN(c2ccccn2)CC1
  cytotoxicity at 70.5 h: -8.25%

## CCNC(=O)CN(Cc1ccoc1)C1CCCCC1
  cytotoxicity at 70.5 h: -9.92%

## COCCN(C)S(=O)(=O)c1cc(C)cc(F)c1
  cytotoxicity at 70.5 h: -5.49%

## CCN(CCNCc1cccc(C#N)c1)C1CC1
  cytotoxicity at 70.5 h: 10.9%

## Cc1csc(NC(=O)C2(C)CCCO2)n1 (stereo not given)
  cytotoxicity at 70.5 h: -7.86%

## CC(=O)c1ccc(OCC(=O)NS(=O)(=O)c2ccc(Cl)s2)cc1
  cytotoxicity at 70.5 h: -10.1%

## CNC(=O)NC(=O)CNC(CC(F)(F)F)c1ccc(F)cc1 (stereo not given)
  cytotoxicity at 70.5 h: 4.15%

## CN(C)C(=O)CNC(CC(F)(F)F)c1ccc(Cl)cc1 (stereo not given)
  cytotoxicity at 70.5 h: 0.0833%

## NS(=O)(=O)CCN(CCc1cccc(F)c1)C1CCCC1
  cytotoxicity at 70.5 h: -0.787%
